For test [1], the target named is human recombinant histamine H1 receptor (Homo sapiens, UniProt P35367). As to the kind of experiment: Histamine H1 radioligand binding ([3H]Pyrilamine). To be noted: compound at 1 μM; 1.2 nM [3H]Pyrilamine; read-out: Binding data (Percentage inhibition) Histamine H1 (1 μM). How it is done:
To evaluate in radioligand binding assays the activity of compounds of the invention, human recombinant histamine H1 receptor expressed in Chinese hamster ovary (CHO) cells (De Backer, M. et al, Biochem. Biophys. Res. Comm. 197(3):1601, 1993) in a modified Tris-HCl buffer (50 mM Tris-HCl, pH 7.4, 2 mM MgCl2, 100 mM NaCl, 250 mM Sucrose) was used. Compounds of the invention were incubated with 1.2 nM [^3H]Pyrilamine for 180 min at 25° C. Non-specific binding was estimated in the presence of 1 μM Pyrilamine. Receptor proteins were filtered and washed, the filters were then counted to determine [^3H]Pyrilamine specifically bound. Compounds were screened at 1 μM or lower, using 1% DMSO as vehicle. Biochemical assay results are presented as the percent inhibition of specific binding in Table 2.

Test [2] deals with human recombinant dopamine D2L receptor (Homo sapiens, UniProt P14416). Nature of the test: Dopamine D2L radioligand binding ([3H]Spiperone). As to conditions: compound at 1 μM; read-out: Percentage inhibition of ligand binding, Dopamine (1 μM) D2L. Here is the method: To evaluate in radioligand binding assays the activity of compounds of the invention, human recombinant dopamine D2L receptor expressed in Chinese hamster ovary (CHO) cells (Grandy, D. et al, Proc. Natl. Acad. Sci. USA. 86:9762, 1989; Hayes, G. et al, Mol. Endocrinol. 6:920, 1992) in a modified Tris-HCl buffer (50 mM Tris-HCl, pH 7.4, 1.4 mM Ascorbic Acid, 0.001% BSA, 150 mM NaCl) was used. Compounds of the invention were incubated with 0.16 nM [^3H]Spiperone for 120 min at 25° C. Non-specific binding was estimated in the presence of 10 μM Haloperidol. Receptor proteins were filtered and washed, the filters were then counted to determine [^3H]Spiperone specifically bound. Compounds were screened at 1 μM or lower, using 1% DMSO as vehicle. Biochemical assay results are presented as the percent inhibition of specific binding in Table 3.
Chain of human recombinant dopamine D2L receptor (P14416 whole entry): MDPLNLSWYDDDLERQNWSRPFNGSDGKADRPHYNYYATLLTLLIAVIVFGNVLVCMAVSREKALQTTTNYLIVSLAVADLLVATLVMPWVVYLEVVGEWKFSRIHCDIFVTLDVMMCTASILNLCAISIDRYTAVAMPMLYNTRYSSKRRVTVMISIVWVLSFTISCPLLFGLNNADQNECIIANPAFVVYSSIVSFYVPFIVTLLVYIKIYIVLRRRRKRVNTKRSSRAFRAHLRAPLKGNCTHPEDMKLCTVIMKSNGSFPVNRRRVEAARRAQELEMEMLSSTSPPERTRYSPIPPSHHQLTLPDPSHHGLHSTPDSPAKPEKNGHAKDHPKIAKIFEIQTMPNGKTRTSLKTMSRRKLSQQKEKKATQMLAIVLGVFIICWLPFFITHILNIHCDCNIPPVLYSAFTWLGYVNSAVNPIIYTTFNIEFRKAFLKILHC

Test [3] addresses T1, human recombinant serotonin (5-Hydroxytryptamine) 5-HT2A receptor (Homo sapiens, UniProt P28223).
T1 construct: expressed in transfected cells; host or cells: Chinese hamster ovary (CHO) K1 cells
As to the kind of experiment: Serotonin 5-HT2A radioligand binding ([3H]Ketanserin). As to conditions: compound at 0.1 μM; read-out: Percentage inhibition of ligand binding, Serotonin (0.1 μM) 5-HT2A. How it is done:
To evaluate in radioligand binding assays the activity of compounds of the invention, human recombinant serotonin (5-Hydroxytryptamine) 5-HT2A receptor expressed in Chinese hamster ovary (CHO) K1 cells (Bonhaus, D. et al, Br. J. Pharmacol. 115:622, 1995; Saucier, C. et al, J. Neurochem. 68:1998, 1997) in a 50 mM Tris-HCl buffer, pH 7.4, was used. Compounds of the invention were incubated with 0.5 nM [^3H]Ketanserin for 60 min at 25° C. Non-specific binding was estimated in the presence of 1 μM Mianserin. Receptor proteins were filtered and washed, the filters were then counted to determine [^3H]Ketanserin specifically bound. Compounds were screened at 1 μM or lower, using 1% DMSO as vehicle. Biochemical assay results are presented as the percent inhibition of specific binding in Table 4.

Test [4] concerns the target T2, human recombinant serotonin (5-Hydroxytryptamine) 5-HT2C receptor (Homo sapiens, UniProt P28335).
T2 construct: expressed in transfected cells; host or cells: Chinese hamster ovary (CHO) K1 cells
T2 sequence (P28335 33-458): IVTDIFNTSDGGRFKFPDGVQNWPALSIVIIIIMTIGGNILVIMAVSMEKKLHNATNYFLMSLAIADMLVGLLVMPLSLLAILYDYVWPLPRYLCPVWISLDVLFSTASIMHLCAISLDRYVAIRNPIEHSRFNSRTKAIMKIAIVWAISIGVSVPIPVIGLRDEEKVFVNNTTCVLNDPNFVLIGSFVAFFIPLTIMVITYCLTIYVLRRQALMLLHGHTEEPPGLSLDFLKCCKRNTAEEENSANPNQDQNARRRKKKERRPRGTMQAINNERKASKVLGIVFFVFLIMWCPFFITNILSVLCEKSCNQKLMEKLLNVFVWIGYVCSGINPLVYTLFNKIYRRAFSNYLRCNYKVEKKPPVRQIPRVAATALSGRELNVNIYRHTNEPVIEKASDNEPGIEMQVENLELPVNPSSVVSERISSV
Nature of the test: Serotonin 5-HT2C radioligand binding ([3H]Mesulergine). As to conditions: compound at 0.1 μM; read-out: Percentage inhibition of ligand binding, Serotonin (0.1 μM) 5-HT2C. Here is the method: To evaluate in radioligand binding assays the activity of compounds of the invention, human recombinant serotonin (5-Hydroxytryptamine) 5-HT2C receptor expressed in Chinese hamster ovary (CHO) K1 cells (Wolf, W. et al, J. Neurochem. 69:1449, 1997) in a modified Tris-HCl buffer (50 mM Tris-HCl, pH 7.4, 0.1% Ascorbic Acid, 10 μM Pargyline) was used. Compounds of the invention were incubated with 1 nM [^3H]Mesulergine for 60 min at 25° C. Non-specific binding was estimated in the presence of 1 μM Mianserin. Receptor proteins were filtered and washed, the filters were then counted to determine [^3H]Mesulergine specifically bound. Compounds were screened at 1 μM or lower, using 1% DMSO as vehicle. Biochemical assay results are presented as the percent inhibition of specific binding in Table 4.

The target in test [5] is T3, human recombinant serotonin (5-Hydroxytryptamine) 5-HT6 receptor (Homo sapiens, UniProt P50406).
T3 construct: expressed in transfected cells; host or cells: human HeLa cells
T3 sequence (P50406 whole entry): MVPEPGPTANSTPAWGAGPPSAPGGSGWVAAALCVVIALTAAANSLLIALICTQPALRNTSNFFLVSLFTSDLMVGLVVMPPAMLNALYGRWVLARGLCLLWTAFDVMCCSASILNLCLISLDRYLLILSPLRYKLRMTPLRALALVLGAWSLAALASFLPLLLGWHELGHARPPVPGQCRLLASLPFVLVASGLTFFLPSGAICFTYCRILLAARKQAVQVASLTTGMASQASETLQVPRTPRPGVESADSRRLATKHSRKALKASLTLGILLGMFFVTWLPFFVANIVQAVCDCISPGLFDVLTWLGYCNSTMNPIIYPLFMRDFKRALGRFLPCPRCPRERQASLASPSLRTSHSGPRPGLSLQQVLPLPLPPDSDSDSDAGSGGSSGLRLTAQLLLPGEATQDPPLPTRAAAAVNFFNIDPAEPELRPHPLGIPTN
As to the kind of experiment: Serotonin 5-HT6 radioligand binding ([3H]LSD). To be noted: compound at 0.1 μM; read-out: Percentage inhibition of ligand binding, Serotonin (0.1 μM) 5-HT6. How it is done: To evaluate in radioligand binding assays the activity of compounds of the invention, human recombinant serotonin (5-Hydroxytryptamine) 5-HT6 receptor expressed in human HeLa cells (Monsma, F. Jr. et al, Mol. Pharmacol. 43:320, 1993) in a modified Tris-HCl buffer (50 mM Tris-HCl, pH 7.4, 150 mM NaCl, 2 mM Ascorbic Acid, 0.001% BSA) was used. Compounds of the invention were incubated with 1.5 nM [3H]Lysergic acid diethylamide (LSD) for 120 min at 37° C. Non-specific binding was estimated in the presence of 5 μM Serotonin (5-HT). Receptor proteins were filtered and washed, the filters were then counted to determine [3H]LSD specifically bound. Compounds were screened at 1 μM or lower, using 1% DMSO as vehicle. Biochemical assay results are presented as the percent inhibition of specific binding in Table 4.

In test [6] the target is human recombinant serotonin (5-Hydroxytryptamine) 5-HT7 receptor (Homo sapiens, UniProt P34969). As to the kind of experiment: Serotonin 5-HT7 radioligand binding ([3H]LSD). As to conditions: compound at 0.1 μM; read-out: Percentage inhibition of ligand binding, Serotonin (0.1 μM) 5-HT7. Here is the method: To evaluate in radioligand binding assays the activity of compounds of the invention, human recombinant serotonin (5-Hydroxytryptamine) 5-HT7 receptor expressed in Chinese hamster ovary (CHO) cells (Roth, B. et al, J. Pharmacol. Exp. Ther. 268:1403, 1994; Shen, Y. et al, J. Biol. Chem. 268:18200, 1993) in a modified Tris-HCl buffer (50 mM Tris-HCl, pH 7.4, 10 mM MgCl2, 0.5 mM EDTA) was used. Compounds of invention were incubated with 5.5 nM [^3H] Lysergic acid diethylamide (LSD) for 2 h at 25° C. Non-specific binding was estimated in the presence of 10 μM Serotonin (5-HT). Receptor proteins were filtered and washed, the filters were then counted to determine [^3H]LSD specifically bound. Compounds were screened at 1 μM or lower, using 1% DMSO as vehicle. Biochemical assay results are presented as the percent inhibition of specific binding in Table 4.
Chain of human recombinant serotonin (5-Hydroxytryptamine) 5-HT7 receptor (P34969 whole entry): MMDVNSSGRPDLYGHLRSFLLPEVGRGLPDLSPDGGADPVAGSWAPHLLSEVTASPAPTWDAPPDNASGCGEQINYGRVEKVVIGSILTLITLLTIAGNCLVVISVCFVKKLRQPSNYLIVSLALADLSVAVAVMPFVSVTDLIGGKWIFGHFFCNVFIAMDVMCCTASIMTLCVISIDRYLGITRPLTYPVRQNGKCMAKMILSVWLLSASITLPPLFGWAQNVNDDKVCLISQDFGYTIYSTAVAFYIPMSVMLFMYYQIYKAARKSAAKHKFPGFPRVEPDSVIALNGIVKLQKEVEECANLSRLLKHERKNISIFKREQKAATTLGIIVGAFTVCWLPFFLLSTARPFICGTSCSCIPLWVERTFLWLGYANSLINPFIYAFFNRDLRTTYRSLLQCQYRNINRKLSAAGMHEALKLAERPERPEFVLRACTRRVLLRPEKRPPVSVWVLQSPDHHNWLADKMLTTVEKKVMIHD

Chain of human recombinant histamine H1 receptor (P35367 whole entry): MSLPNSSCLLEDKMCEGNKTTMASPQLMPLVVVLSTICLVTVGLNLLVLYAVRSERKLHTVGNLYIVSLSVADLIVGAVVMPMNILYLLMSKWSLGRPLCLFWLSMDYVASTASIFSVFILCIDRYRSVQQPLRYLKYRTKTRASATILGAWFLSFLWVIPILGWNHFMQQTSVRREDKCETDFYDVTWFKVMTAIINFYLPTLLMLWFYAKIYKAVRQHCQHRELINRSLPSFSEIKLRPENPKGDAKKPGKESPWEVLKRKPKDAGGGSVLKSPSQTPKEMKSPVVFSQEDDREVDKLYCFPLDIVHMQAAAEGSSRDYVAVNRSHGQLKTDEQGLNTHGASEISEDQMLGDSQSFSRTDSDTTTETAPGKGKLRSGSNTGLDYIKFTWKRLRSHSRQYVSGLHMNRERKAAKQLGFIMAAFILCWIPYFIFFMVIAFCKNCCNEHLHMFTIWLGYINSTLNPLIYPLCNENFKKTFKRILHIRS
T1 sequence (P28223 whole entry): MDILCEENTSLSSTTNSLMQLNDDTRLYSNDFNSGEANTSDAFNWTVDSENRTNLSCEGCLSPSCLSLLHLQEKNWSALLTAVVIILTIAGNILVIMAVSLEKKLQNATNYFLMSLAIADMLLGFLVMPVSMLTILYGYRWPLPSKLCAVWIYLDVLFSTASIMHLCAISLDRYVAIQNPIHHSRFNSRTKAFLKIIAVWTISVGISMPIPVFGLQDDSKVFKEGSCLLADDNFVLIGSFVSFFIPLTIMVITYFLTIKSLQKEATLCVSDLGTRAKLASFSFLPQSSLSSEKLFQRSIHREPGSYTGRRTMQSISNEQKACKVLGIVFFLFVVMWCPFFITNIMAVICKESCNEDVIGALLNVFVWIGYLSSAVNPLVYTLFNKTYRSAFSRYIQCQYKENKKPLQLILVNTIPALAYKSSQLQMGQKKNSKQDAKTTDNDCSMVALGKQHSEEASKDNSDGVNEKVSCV

Turning to `Cc1ccc2c(c1)c1c(n2C)C(C)(CCc2ccccc2)CN(C)C1` (stereo not drawn) [Compound 44], the inhibition (in general, the change of the read-out against control, counted positive when it falls) at 1 µM in test [1] was found to be 101%; in test [2], 33%. Besides, the inhibition at 0.1 µM in test [3] came out at 4%; in test [4], 12%; in test [5], 17%; in test [6], 29%.
Take `Cc1ccc2c(c1)c1c(n2C)C(C)(CCc2ccc(C)nc2)CN(C)C1` (stereo not drawn) [Compound 45]: the inhibition at 1 µM in test [1] worked out at 99%; in test [2], 5%. Also, the inhibition at 0.1 µM in test [3] is 1%; in test [4], 6%; in test [5] it was -4%; in test [6], -6%.
For the compound `Cc1ccc2[nH]c3c(c2c1)CN(C)CC3(C)CCc1ccc(C)nc1` (stereo not drawn) [Compound 46, 2,4,8-Trimethyl-4-[2-(6-methyl-pyridin-3-yl)-ethyl]-2,3,4,5-tetrahydro-1H-pyrido[4,3-b]indole], the inhibition at 1 µM in test [1] came to 34%; in test [2], 3%. Also, the inhibition at 0.1 µM in test [3] is 7%; in test [4], 8%; in test [5] it was 6%; in test [6], -10%.
Take `Cc1ccc2[nH]c3c(c2c1)CN(C)CC3(C)CCc1ccccc1` (stereo not drawn) [Compound 43]: the inhibition at 1 µM came to 93% in test [1] and 23% in test [2]. For the same compound, the inhibition at 0.1 µM in test [3] was 15%; in test [4], -4%; in test [5], 9%; in test [6], -23%.

Values taken from patent US20130172320A1, “PYRIDO [4,3-B] INDOLE AND PYRIDO [3,4-B] INDOLE DERIVATIVES AND METHODS OF USE” (priority 2010, published 2013).
